# From article PMC8968952, “Modulation of ERCC1-XPF Heterodimerization Inhibition via Structural Modification of Small Molecule Inhibitor Side-Chains” (Frontiers in Oncology, 2022)
# pIC50: −log10 of the molar value.
# Experiments:
# HCT-116 cells [1] = assay: Clonogenic survival assay, ionizing radiation; type: cell-based, human; conditions: 0.5 and 1 μM, 0 to 8 Gy γ-radiation
# Description: The effectiveness of compound 6 for sensitization of cells to ionizing radiation was also assessed using the clonogenic survival assay. Briefly, 200-3000 of HCT-116 cells (depending on the radiation dose) were seeded and after 24 hours the cells were pretreated with 0.5 or 1 µM of compound 6 in DMSO for 4 hours followed by exposure to increasing doses of γ-radiation (^60Co Gammacell; Atomic Energy of Canada Limited, Ottawa) from 0 to 8 Gy (at a dose rate of 0.8 Gy/min) and kept for an additional 24 hours in inhibitor-containing medium. The medium was then replaced with fresh medium without the compound, and the plates were incubated at 37°C for 9 more days before staining and determining the number of colonies. Data were plotted using GraphPad Prism version 5.04 software.
# HCT-116 cells [2] = assay: Cytotoxicity assay using colony forming assay; type: cell-based, human; conditions: 0.5 μM
# Description: HCT-116 cells were incubated with media containing a non-toxic concentration of 6 or 10 ( Supplementary Figure 3 ) prior to exposure to the DNA damaging agents. […]
# nitrocellulose. Proteins were visualized using ERCC1 (A73368-100, 1:1000; EpiGentek), XPF (LS- […]
# primary antibodies followed by secondary anti-mouse or anti-rabbit secondary HRP-conjugated secondary antibodies. ECL chemiluminescent substrate (Promega) was used to detect the proteins.
# Supplementary Figure 3. Cytotoxicity assay using colony forming assay
# 4 HCT-116 Derived XPF Knockout Cells
# For CRISPR deletion of XPF from HCT-116 cells, the pSpCas9(BB)-2A-GFP (pX458) vector (Addgene plasmid # 48138) was used. The short guide sequence to target XPF exon one was: 5'- […]
# - 3' and target XPF exon eight was: 5'-
# -3'. All short guide sequences oligonucleotides were synthesized, annealed and cloned into pX458 vector and were confirmed by DNA sequencing at DNA laboratory, University of Calgary. The DNA plasmid (pX458 containing XPF short guide RNA sequence, 5 µg) was transfected into HCT-116 cells using Lipofectamine 2000 (Invitrogen) according to the manufacturer’s instructions. Forty-eight hours after transfection, cells were harvested and genomic DNA was isolated using the KAPA Express Extract Kit (Kapa Biosystems) according to the manufacturer’s instructions. […]
# [3] = Distribution coefficient (log D at pH 7.4); type: physicochemical
# Description: (§1) The ADME (absorption, distribution, metabolism, and excretion) profile of our lead compound 6 was determined by standard protocols carried out by WuXi AppTec (Shanghai) Co (https://www.wuxiapptec.com/). The following tests were conducted: distribution coefficient (log D at pH 7.4), aqueous solubility (Kinetic), metabolic stability in human liver microsomes and cryopreserved human hepatocytes, bidirectional permeability in Caco-2 cells, serum protein binding, and cytochrome P450 (CYP) inhibition (CYP1A2, CYP2C9, CYP2C19, CYP2D6, and CYP3A4-M).
# [4] = Metabolic stability in human liver microsomes; type: in vitro ADME
# Description: as §1
# CYP2C19 = CYP2C19 (Homo sapiens, UniProt P33261); assay: Cytochrome P450 inhibition, CYP2C19; type: in vitro ADME
# Sequence of CYP2C19 (P33261 whole entry): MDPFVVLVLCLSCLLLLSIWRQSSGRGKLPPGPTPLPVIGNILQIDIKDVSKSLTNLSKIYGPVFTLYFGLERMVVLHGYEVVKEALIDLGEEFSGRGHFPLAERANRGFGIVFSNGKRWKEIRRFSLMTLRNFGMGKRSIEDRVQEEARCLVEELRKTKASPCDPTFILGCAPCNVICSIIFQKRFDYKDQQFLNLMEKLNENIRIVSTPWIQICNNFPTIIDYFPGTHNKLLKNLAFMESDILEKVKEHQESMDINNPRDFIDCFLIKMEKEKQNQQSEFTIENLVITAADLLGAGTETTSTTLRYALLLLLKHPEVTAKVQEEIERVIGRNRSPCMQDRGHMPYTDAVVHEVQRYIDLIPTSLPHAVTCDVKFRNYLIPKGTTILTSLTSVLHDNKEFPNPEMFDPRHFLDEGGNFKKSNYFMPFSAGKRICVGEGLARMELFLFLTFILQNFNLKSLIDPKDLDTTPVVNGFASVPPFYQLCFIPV
# Description: as §1
# CYP2D6 = CYP2D6 (Homo sapiens, UniProt P10635); assay: Cytochrome P450 inhibition, CYP2D6; type: in vitro ADME
# Sequence of CYP2D6 (P10635 whole entry): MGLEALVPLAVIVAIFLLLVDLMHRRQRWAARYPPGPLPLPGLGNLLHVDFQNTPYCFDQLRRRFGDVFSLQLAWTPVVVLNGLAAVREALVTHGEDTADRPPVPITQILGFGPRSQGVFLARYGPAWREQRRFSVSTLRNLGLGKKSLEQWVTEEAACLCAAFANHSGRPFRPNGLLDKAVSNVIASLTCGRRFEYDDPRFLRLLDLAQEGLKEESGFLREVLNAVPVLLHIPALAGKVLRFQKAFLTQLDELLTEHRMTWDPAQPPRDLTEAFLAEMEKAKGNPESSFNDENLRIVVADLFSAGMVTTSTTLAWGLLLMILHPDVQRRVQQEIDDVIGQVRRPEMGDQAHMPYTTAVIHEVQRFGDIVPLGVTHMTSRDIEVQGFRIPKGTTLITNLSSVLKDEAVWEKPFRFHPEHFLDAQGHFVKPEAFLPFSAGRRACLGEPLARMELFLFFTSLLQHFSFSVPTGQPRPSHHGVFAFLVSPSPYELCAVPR
# Description: as §1
# CYP3A4-M = CYP3A4-M (Homo sapiens, UniProt P08684); assay: Cytochrome P450 inhibition, CYP3A4-M; type: in vitro ADME
# Sequence of CYP3A4-M (P08684 whole entry): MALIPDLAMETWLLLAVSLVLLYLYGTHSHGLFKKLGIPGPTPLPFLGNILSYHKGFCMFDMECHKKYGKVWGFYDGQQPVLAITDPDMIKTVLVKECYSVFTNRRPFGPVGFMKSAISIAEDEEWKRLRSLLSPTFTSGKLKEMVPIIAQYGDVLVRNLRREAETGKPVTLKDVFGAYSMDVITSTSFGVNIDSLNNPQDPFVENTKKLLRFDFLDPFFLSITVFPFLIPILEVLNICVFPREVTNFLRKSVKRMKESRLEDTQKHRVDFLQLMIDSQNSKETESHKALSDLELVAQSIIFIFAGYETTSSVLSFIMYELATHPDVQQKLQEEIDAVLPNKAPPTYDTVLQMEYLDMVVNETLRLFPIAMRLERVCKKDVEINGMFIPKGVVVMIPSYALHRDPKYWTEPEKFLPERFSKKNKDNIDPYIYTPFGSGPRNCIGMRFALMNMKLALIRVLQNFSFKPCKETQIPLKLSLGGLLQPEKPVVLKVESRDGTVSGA
# Description: as §1
smiles,measurement,setting,value
COc1ccc2nc3cc(Cl)ccc3c(Nc3ccc(O)c(CN4CCN(CCN(C(C)C)C(C)C)CC4)c3)c2c1 [Compound 6],sensitization to ionizing radiation (in words),HCT-116 cells [1],sensitized HCT-116 cells in a dose-dependent manner
same,toxicity of the concentration used (in words),HCT-116 cells [2],non-toxic
same,logD,[3],3.95
same,"metabolic stability grade, liver microsome assay (in words)",[4],low to moderate metabolic stability
same,CLint scaled,"[4]; human, liver microsomes, read-out: Metabolic stability in human liver microsomes (clearance)",376 mL/min/kg
same,CYP2C19 inhibition grade (in words),CYP2C19,weak inhibitor
same,pIC50,CYP2C19,4.97
same,CYP2D6 inhibition grade (in words),CYP2D6,moderate inhibitor
same,pIC50,CYP2D6,5.53
same,CYP3A4-M inhibition grade (in words),CYP3A4-M,moderate inhibitor
same,pIC50,CYP3A4-M,5.72
